Results taken from publication PMC4014984, “The tetrapeptide core of the carrier peptide Xentry is cell-penetrating: novel activatable forms of Xentry” (Scientific Reports, 2014).
Square brackets hold non-standard residues; d marks the D form. Peptide text beside a SMILES is read from it. * marks the point of attachment. FITC = O=C1OC2(c3ccc(O)cc3Oc3cc(O)ccc32)c2ccc(NC(=S)*)cc21

Legend:
[1] = tested on: MCF-7 cells; assay: Uptake of activatable Xentry peptides with or without MMP-9 pretreatment; conditions: then 3 h with MCF-7 cells, fluorescence or confocal microscopy
[2] = tested on: WM-266-4 cells; assay: Cell-penetrating ability of Xentry peptides, fluorescence microscopy; conditions: for Uptake by WM-266-4 cells (in words): FITC-labelled L-isomeric peptides, 10 μM, 3 h, fixed cells; for Uptake by WM-266-4 cells: scored visually, labelled peptides incubated 3 h at 37°C, L-isomers in media without FCS, D-isomers with FCS
[3] = tested on: BT549 cells; assay: as above; conditions: for Uptake by BT549 cells (in words): FITC-labelled L-isomeric peptides, 10 μM, 3 h, fixed cells; for Uptake by BT-549cells: scored visually, labelled peptides incubated 3 h at 37°C, L-isomers in media without FCS
[4] = tested on: HepG2 cells; assay: Cell-penetrating ability of Xentry peptides, fluorescence/confocal microscopy; conditions: for Uptake by HepG2 cells (in words): FITC-labelled L-isomeric peptides, 10 μM, 3 h, fixed cells, fluorescence or confocal microscopy; for Uptake by HepG2 cells: scored visually, fluorescence microscopy, labelled peptides incubated 3 h at 37°C, L-isomers in media without FCS, D-isomers with FCS
[5] = tested on: HepG2 cells
[6] = tested on: HepG2 cells; assay: Quantification of peptide uptake by overall cell fluorescence in wells (plate reader); conditions: HepG2, 10 μM, 3 h, media without FCS, plate reader ex 485 nm / em 520 nm, mean ± SD n = 4, Student's t-test
Method: HepG2 cells seeded into 96-well plates were incubated with L-isomeric (a), and D-isomeric (b) peptides at a final concentration of 10 μM in quadruplicate wells. The cells were incubated for 3 h, fixed with 4% formaldehyde, and fluorescence measured using a fluorescent plate reader at an excitation wavelength of 485 nm and emission wavelength of 520 nm. The fluorescence of cells was plotted as the mean ± SD (n = 4).
The cells were washed thrice with media without FCS, and peptides diluted in 100 μl of MEM media without FCS were added to the cells at a final concentration of 10 μM in quadruplicate wells. […] The fluorescence of cells was plotted as the mean ± SD (n = 4).

[7] = tested on: HepG2 cells; remark: listed apart in the source

Molecule | Uptake by WM-266-4 cells (in words) [2] | Uptake by WM-266-4 cells [2] | Uptake by BT549 cells (in words) [3] | Uptake by BT-549cells [3] | Uptake by HepG2 cells (in words) [4] | Uptake by HepG2 cells [4] | further results
CC(C)C[C@@H](N)C(=O)N[C@H](CS)C(=O)N[C@H](CC(C)C)C(=O)N[C@H](CCCNC(=N)N)C(=O)N1CCC[C@@H]1C(=O)N[C@@H](C(=O)NCC(=O)NCC(=O)NCC(=O)NCC(=O)N1CCC[C@H]1C(=O)N[C@@H](CC(C)C)C(=O)NCC(=O)N[C@@H](CC(C)C)C(=O)N[C@@H](C)C(=O)NCC(=O)NCC(=O)N[C@H](CC(C)C)C(=O)N[C@H](CS)C(=O)N[C@H](CC(C)C)C(=O)N[C@H](CCCNC(=N)N)C(=O)N1CCC[C@@H]1C(=O)N[C@@H](C(=O)NCC(=O)N[C@H](CCCCNC(=S)Nc1ccc2c(c1)C(=O)OC21c2ccc(O)cc2Oc2cc(O)ccc21)C(=O)O)C(C)C)C(C)C [lclrpvGGGGPLGLAGGlclrpvgk-FITC] (H-[dL][dC][dL][dR][dP][dV]GGGGPLGLAGG[dL][dC][dL][dR][dP][dV]G[dK](FITC)-OH) |  |  |  |  |  |  | Uptake by MCF-7 cells after pretreatment with MMP-9 ([1]; 10 μM peptide incubated 3 h at 37°C with activated MMP-9 (0.4 μg/ml)): led to uptake of the digested peptide; Uptake by MCF-7 cells, peptide not treated with MMP-9 ([1]; 10 μM peptide left untreated): not cell-permeable
LLLRR | poorly cell-permeable | - | poorly cell-permeable | - | failed to improve cell-penetrating ability | - | 
IIIR | poorly cell-permeable | - | poorly cell-permeable |  | improved cell uptake |  | 
GRKKRRQRRRPPQGGRRRQQQQQQRRR [penetratin] |  |  |  |  |  |  | Effect on viability of HepG2 cells [5]: no significant affect
LCLN |  | + |  | +++ |  | + | Cell-penetrating ability compared with LCLR (overall cell fluorescence in wells) [6]: reduced activity
LLLR | poorly cell-permeable | - | poorly cell-permeable | - | poorly penetrated | - | 
LCLQ |  | + | maintained cell-permeability | +++ | did not improve uptake | ++ | Cell-penetrating ability compared with LCLR (overall cell fluorescence in wells) [6]: not significantly different
LCLK | taken up well | +++ | taken up well |  | taken up well |  | Cell-penetrating ability compared with LCLR (overall cell fluorescence in wells) [6]: reduced activity
LCLRPVG |  |  |  | +++ |  |  | 
LCLE | readily taken up | +++ | readily taken up | +++ | less well | ++ | Cell-penetrating ability compared with LCLR (overall cell fluorescence in wells) [6]: not significantly different
VVVR | poorly cell-permeable | - | poorly cell-permeable | - | improved cell uptake | ++ | 
LCLRPVGGGRRRQQQQQQRRR |  |  |  |  |  |  | Effect on HepG2 viability relative to the other three CPPs [5]: least effect; Effect on viability of HepG2 cells [5]: no significant affect
LLLLR | poorly cell-permeable | - | poorly cell-permeable | + | poorly penetrated | + | 
LCLRPVGGGGGGGGGGGGGGGLCLRPVG |  |  |  |  |  |  | Uptake of linear multivalent forms of Xentry by HepG2 cells [7]: unable to penetrate
